The text below walks through data of patent publication US12581252B2, “Substituted pyrrolo[3,4-b]pyridines as PI3K-α inhibitors” (Relay Therapeutics, Inc., priority 2020, dated 2026).

One experiment has as its target H1047R PIK3CA enzyme (Homo sapiens, UniProt P42336, H1047R). As to the kind of experiment: ADP-Glo Biochemical PIK3CA Kinase Assay.
The next experiment in a line: cells. The note with it: Homo sapiens, MCF-10A, read-out: MCF10A IC50.

Bounds are passed on as bounds.

Chain of H1047R PIK3CA enzyme (P42336 whole entry H1047R): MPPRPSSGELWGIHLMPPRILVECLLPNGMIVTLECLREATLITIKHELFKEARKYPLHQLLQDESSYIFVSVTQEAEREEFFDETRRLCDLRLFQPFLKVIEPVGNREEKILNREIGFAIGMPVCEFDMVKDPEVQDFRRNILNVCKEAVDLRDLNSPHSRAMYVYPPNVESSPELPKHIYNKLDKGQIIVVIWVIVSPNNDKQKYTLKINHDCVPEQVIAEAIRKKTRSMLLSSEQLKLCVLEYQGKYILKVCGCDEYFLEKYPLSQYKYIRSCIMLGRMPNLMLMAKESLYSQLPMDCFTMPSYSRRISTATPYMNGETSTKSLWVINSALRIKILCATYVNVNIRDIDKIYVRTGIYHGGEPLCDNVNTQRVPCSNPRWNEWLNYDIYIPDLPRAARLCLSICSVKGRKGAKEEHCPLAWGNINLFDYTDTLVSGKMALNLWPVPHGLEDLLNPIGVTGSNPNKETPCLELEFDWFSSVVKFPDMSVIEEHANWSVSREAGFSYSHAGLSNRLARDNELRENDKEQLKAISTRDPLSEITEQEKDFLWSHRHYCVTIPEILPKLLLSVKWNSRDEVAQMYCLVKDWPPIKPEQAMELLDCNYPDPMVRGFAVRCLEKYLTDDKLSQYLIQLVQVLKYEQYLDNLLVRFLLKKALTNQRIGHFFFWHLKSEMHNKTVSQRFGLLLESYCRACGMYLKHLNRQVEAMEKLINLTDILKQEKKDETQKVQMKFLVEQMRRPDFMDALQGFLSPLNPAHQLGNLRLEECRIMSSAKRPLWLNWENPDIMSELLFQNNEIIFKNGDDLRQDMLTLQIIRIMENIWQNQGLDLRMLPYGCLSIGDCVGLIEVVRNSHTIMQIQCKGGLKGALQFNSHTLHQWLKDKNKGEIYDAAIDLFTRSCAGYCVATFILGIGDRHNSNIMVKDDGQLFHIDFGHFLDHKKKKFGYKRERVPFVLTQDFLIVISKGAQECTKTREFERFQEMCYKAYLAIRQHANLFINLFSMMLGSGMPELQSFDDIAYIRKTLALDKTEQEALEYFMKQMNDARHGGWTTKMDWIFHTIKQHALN
Chain of H1047R PIK3CA enzyme (P27986 whole entry partner): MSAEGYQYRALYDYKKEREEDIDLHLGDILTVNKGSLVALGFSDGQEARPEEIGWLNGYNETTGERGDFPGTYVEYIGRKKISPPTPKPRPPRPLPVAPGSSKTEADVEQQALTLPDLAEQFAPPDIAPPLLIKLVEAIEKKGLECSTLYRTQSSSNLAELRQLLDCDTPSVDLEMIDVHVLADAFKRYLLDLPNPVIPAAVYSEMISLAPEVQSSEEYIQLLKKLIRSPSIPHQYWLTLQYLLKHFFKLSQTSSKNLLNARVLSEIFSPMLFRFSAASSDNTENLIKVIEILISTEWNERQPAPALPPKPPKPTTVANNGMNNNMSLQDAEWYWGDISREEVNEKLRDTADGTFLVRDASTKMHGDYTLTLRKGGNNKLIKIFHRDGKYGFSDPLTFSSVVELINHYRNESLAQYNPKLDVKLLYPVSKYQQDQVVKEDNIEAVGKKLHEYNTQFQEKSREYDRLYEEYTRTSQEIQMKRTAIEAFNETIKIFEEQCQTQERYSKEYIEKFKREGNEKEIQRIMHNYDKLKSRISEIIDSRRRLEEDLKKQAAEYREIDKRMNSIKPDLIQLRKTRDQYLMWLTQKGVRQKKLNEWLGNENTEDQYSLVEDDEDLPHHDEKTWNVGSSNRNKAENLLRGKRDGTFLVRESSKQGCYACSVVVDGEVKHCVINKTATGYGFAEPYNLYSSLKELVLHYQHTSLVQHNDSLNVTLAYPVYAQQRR

A word on the IC50: it is the concentration needed to halve the response being measured. In the case of `O=C1N[C@@H](c2cc(F)ccc2Cl)c2c(NC(=O)N3C[C@](O)(C(F)(F)F)c4cc(F)ccc43)ccc(-n3nccn3)c21` (single isomer, unassigned) [Compound I-2525], the IC50 is ≤ 0.1 µM on H1047R PIK3CA enzyme and < 1 µM in the experiment “cells”.
Taken in the same sequence, the figures for `N#CCc1cc(NC(=O)N2C[C@@H](O)c3cc(F)ccc32)c2c(c1)C(=O)N[C@H]2c1cc(F)ccc1Cl` (single isomer, unassigned) [Compound I-2537] were ≤ 0.1 µM and < 1 µM.
As to `COCc1cc(NC(=O)N2C[C@@](O)(C(F)(F)F)c3cc(F)ccc32)c2c(c1)C(=O)N[C@@H]2c1cc(F)ccc1Cl` (single isomer, unassigned) [Compound I-2541], the values for the half-inhibitory concentration (IC50) against H1047R PIK3CA enzyme and in “cells” were ≤ 0.1 µM and < 1 µM, respectively.
Take `O=C1N[C@H](c2cc(F)ccc2Cl)c2c(NC(=O)N3C[C@@](O)(C(F)(F)F)c4cc(F)ccc43)cc(-n3ccnn3)cc21` (single isomer, unassigned) [Compound I-2547]: the IC50 on H1047R PIK3CA enzyme was ≤ 0.1 µM; in “cells”, < 1 µM.
In the case of `N#CC1(COc2cc(NC(=O)N3C[C@@H](O)c4cc(F)ccc43)c3c(c2)C(=O)N[C@@H]3c2cc(F)ccc2Cl)CC1` (single isomer, unassigned) [Compound I-2552], the figures for the concentration for half-maximal inhibition (IC50) at H1047R PIK3CA enzyme and in the experiment “cells” were ≤ 0.1 µM and 1 to 5 µM, respectively.
In the case of `O=C1N[C@H](c2cc(F)ccc2Cl)c2c(NC(=O)N3C[C@](O)(C(F)F)c4cc(F)ccc43)cccc21` (single isomer, unassigned) [Compound I-2558], the IC50 at H1047R PIK3CA enzyme was ≤ 0.1 µM; in “cells”, < 1 µM.
Turning to `N#Cc1cc(NC(=O)N2C[C@@](O)(C(F)(F)F)c3cc(F)ccc32)c2c(c1)C(=O)N[C@@H]2c1cc(F)ccc1Cl` (single isomer, unassigned) [Compound I-2560], the figures for the concentration for half-maximal inhibition (IC50) against H1047R PIK3CA enzyme and in “cells” were ≤ 0.1 µM and < 1 µM, respectively.
For `N#Cc1cc(NC(=O)N2C[C@](O)(C(F)(F)F)c3cc(F)ccc32)c2c(c1)C(=O)N[C@@H]2c1cc(F)ccc1Cl` (single isomer, unassigned) [Compound I-2562], the IC50 on H1047R PIK3CA enzyme was ≤ 0.1 µM; in “cells”, < 1 µM.
For `N#Cc1cc(NC(=O)N2C[C@@](O)(C(F)(F)F)c3ccccc32)c2c(c1)C(=O)N[C@@H]2c1cc(F)ccc1Cl` (single isomer, unassigned) [Compound I-2564], the IC50 on H1047R PIK3CA enzyme was ≤ 0.1 µM; in “cells”, < 1 µM.
Take `O=C1N[C@H](c2cc(F)ccc2Cl)c2c(NC(=O)N3C[C@@](O)(C(F)(F)F)c4cc(F)ccc43)cc(-n3nccn3)cc21` (single isomer, unassigned) [Compound I-2569]: the IC50 is ≤ 0.1 µM on H1047R PIK3CA enzyme and < 1 µM in the experiment “cells”.
Regarding `CC(=O)Nc1cc(NC(=O)N2C[C@](O)(C(F)(F)F)c3cc(F)ccc32)c2c(c1)C(=O)N[C@@H]2c1cc(F)ccc1Cl` (single isomer, unassigned) [Compound I-2573], the IC50 against H1047R PIK3CA enzyme was ≤ 0.1 µM; in the experiment “cells”, < 1 µM.
On to `O=C1N[C@H](c2cc(F)ccc2Cl)c2c(NC(=O)N3C[C@](O)(C(F)(F)F)c4cc(F)ccc43)cc(C(F)F)cc21` (single isomer, unassigned) [Compound I-2579], for which the results for the half-inhibitory concentration (IC50) against H1047R PIK3CA enzyme and in the experiment “cells” were ≤ 0.1 µM and < 1 µM, respectively.
As for `NCCc1cc(NC(=O)N2C[C@@](O)(C(F)(F)F)c3cc(F)ccc32)c2c(c1)C(=O)N[C@H]2c1cc(F)ccc1Cl` (single isomer, unassigned) [Compound I-2581], the figures for the half-inhibitory concentration (IC50) against H1047R PIK3CA enzyme and in “cells” were ≤ 0.1 µM and 10 to 36 µM, respectively.
For `[2H]C1([2H])N(C(=O)Nc2cccc3c2[C@H](c2cc(F)ccc2Cl)NC3=O)c2ccc(F)cc2[C@]1(O)C(F)(F)F` (single isomer, unassigned) [Compound I-2595], the half-maximal inhibitory concentration (IC50) at H1047R PIK3CA enzyme is ≤ 0.1 µM; in “cells”, < 1 µM.
Take `N#CCc1cc(NC(=O)N2C[C@](O)(C(F)F)c3cc(F)ccc32)c2c(c1)C(=O)N[C@H]2c1cc(F)ccc1Cl` (single isomer, unassigned) [Compound I-2601]: the IC50 was ≤ 0.1 µM at H1047R PIK3CA enzyme and < 1 µM in “cells”.
Turning to `N#CCc1cc(NC(=O)N2C[C@](O)(C(F)(F)F)c3ccccc32)c2c(c1)C(=O)N[C@@H]2c1cc(F)ccc1Cl` (single isomer, unassigned) [Compound I-2605], the IC50 was ≤ 0.1 µM against H1047R PIK3CA enzyme and < 1 µM in the experiment “cells”.
Taken in the same sequence, the figures for `CNc1cc(NC(=O)N2C[C@](O)(C(F)(F)F)c3cc(F)ccc32)c2c(c1C#N)C(=O)N[C@@H]2c1cc(F)ccc1Cl` (single isomer, unassigned) [Compound I-2609] were ≤ 0.1 µM and < 1 µM.
For the compound `CC(C)(C#N)n1cc(-c2cc(NC(=O)N3C[C@@](O)(C(F)(F)F)c4cc(F)ccc43)c3c(c2)C(=O)N[C@@H]3c2cc(F)ccc2Cl)cn1` (single isomer, unassigned) [Compound I-2613], the IC50 against H1047R PIK3CA enzyme is ≤ 0.1 µM; in the experiment “cells”, < 1 µM.
The like results for `N#CCc1ccc(NC(=O)N2C[C@](O)(C(F)(F)F)c3cc(F)ccc32)c2c1C(=O)N[C@H]2c1cc(F)ccc1Cl` (single isomer, unassigned) [Compound I-2614] were, in that order, ≤ 0.1 µM and < 1 µM.
Taken in the same sequence, the figures for `O=C1N[C@H](c2cc(F)ccc2Cl)c2c(NC(=O)N3C[C@](O)(C(F)(F)F)c4cc(F)ccc43)ccc(Cl)c21` (single isomer, unassigned) [Compound I-2618] were ≤ 0.1 µM and < 1 µM.
The like results for `N#CCc1cc(NC(=O)N2C[C@](O)(C(F)(F)F)c3cc(F)ccc32)c2c(c1)C(=O)N[C@@H]2c1cc(F)ccc1Cl` (single isomer, unassigned) [Compound I-2627] were, in that order, ≤ 0.1 µM and < 1 µM.
On to `O=C1N[C@@H](c2cc(F)ccc2Cl)c2c(NC(=O)N3C[C@](O)(C(F)(F)F)c4cc(F)ccc43)cc(F)cc21` (single isomer, unassigned) [Compound I-2630], for which the results for the concentration for half-maximal inhibition (IC50) against H1047R PIK3CA enzyme and in the experiment “cells” were 1 to 10 µM and < 1 µM, respectively.
Take `O=C1N[C@@H](c2cc(F)ccc2Cl)c2c(NC(=O)N3C[C@](O)(C(F)F)c4cc(F)ccc43)cc(F)cc21` (single isomer, unassigned) [Compound I-2635]: the half-maximal inhibitory concentration (IC50) on H1047R PIK3CA enzyme is ≤ 0.1 µM; in “cells”, < 1 µM.
`Cc1cn(-c2cc(NC(=O)N3C[C@](O)(C(F)(F)F)c4cc(F)ccc43)c3c(c2)C(=O)N[C@@H]3c2cc(F)ccc2Cl)cn1` (single isomer, unassigned) [Compound I-2637]: the IC50 was ≤ 0.1 µM against H1047R PIK3CA enzyme and < 1 µM in the experiment “cells”.
Taken in the same sequence, the figures for `CNc1cc(NC(=O)N2C[C@@](O)(C(F)(F)F)c3cc(F)ccc32)c2c(c1)C(=O)N[C@@H]2c1cc(F)ccc1Cl` (single isomer, unassigned) [Compound I-2640] were ≤ 0.1 µM and < 1 µM.
As to `CNc1cc(NC(=O)N2C[C@](O)(C(F)(F)F)c3cc(F)ccc32)c2c(n1)C(=O)N[C@@H]2c1cc(F)ccc1Cl` (single isomer, unassigned) [Compound I-2644], the IC50 was ≤ 0.1 µM at H1047R PIK3CA enzyme and < 1 µM in “cells”.
For `CC(C)(CN)n1cc(-c2cc(NC(=O)N3C[C@@](O)(C(F)(F)F)c4cc(F)ccc43)c3c(c2)C(=O)N[C@@H]3c2cc(F)ccc2Cl)cn1` (single isomer, unassigned) [Compound I-2649], the results for the IC50 against H1047R PIK3CA enzyme and in the experiment “cells” were ≤ 0.1 µM and 1 to 5 µM, respectively.
Taken in the same sequence, the figures for `O=C1N[C@@H](c2cc(F)ccc2Cl)c2c(NC(=O)N3C[C@](O)(C(F)(F)F)c4cc(F)ccc43)cc(C3COC3)cc21` (single isomer, unassigned) [Compound I-2655] were ≤ 0.1 µM and < 1 µM.
Consider `CC1(Cc2cc(NC(=O)N3C[C@](O)(C(F)(F)F)c4cc(F)ccc43)c3c(c2)C(=O)N[C@@H]3c2cc(F)ccc2Cl)COC1` (single isomer, unassigned) [Compound I-2657], for which the IC50 was ≤ 0.1 µM against H1047R PIK3CA enzyme and < 1 µM in “cells”.
Turning to `Cc1nccn1-c1cc(NC(=O)N2C[C@@](O)(C(F)(F)F)c3cc(F)ccc32)c2c(c1)C(=O)N[C@@H]2c1cc(F)ccc1Cl` (single isomer, unassigned) [Compound I-2661], the IC50 at H1047R PIK3CA enzyme was ≤ 0.1 µM; in “cells”, < 1 µM.
On to `O=C1N[C@H](c2cc(F)ccc2Cl)c2c(NC(=O)N3C[C@@](O)(C(F)(F)F)c4cc(F)ccc43)cc(N3CCCC3=O)cc21` (single isomer, unassigned) [Compound I-2665], for which the IC50 was ≤ 0.1 µM on H1047R PIK3CA enzyme and < 1 µM in the experiment “cells”.
In the case of `N#Cc1cnn(Cc2cc(NC(=O)N3C[C@](O)(C(F)(F)F)c4cc(F)ccc43)c3c(c2)C(=O)N[C@@H]3c2cc(F)ccc2Cl)c1` (single isomer, unassigned) [Compound I-2669], the values for the IC50 on H1047R PIK3CA enzyme and in “cells” were ≤ 0.1 µM and < 1 µM, respectively.
The like results for `O=C1N[C@H](c2cc(F)ccc2Cl)c2c(NC(=O)N3C[C@@](O)(C(F)(F)F)c4cc(F)ccc43)cc(N3CCOC3=O)cc21` (single isomer, unassigned) [Compound I-2673] were, in that order, ≤ 0.1 µM and < 1 µM.
As for `[2H][C@@]1(c2cc(F)ccc2Cl)NC(=O)c2cccc(NC(=O)N3C[C@@](O)(C(F)(F)F)c4cc(F)ccc43)c21` (single isomer, unassigned) [Compound I-2682], the IC50 against H1047R PIK3CA enzyme was ≤ 0.1 µM; in the experiment “cells”, < 1 µM.
As to `O=C1N[C@H](c2ccccc2Cl)c2c(NC(=O)N3C[C@@](O)(C(F)(F)F)c4cc(F)ccc43)cccc21` (single isomer, unassigned) [Compound I-2688], the IC50 against H1047R PIK3CA enzyme was ≤ 0.1 µM; in the experiment “cells”, < 1 µM.
As to `CN(C)c1cc(NC(=O)N2C[C@](O)(C(F)(F)F)c3cc(F)ccc32)c2c(n1)C(=O)N[C@H]2c1cc(F)ccc1Cl` (single isomer, unassigned) [Compound I-2690], the IC50 was ≤ 0.1 µM against H1047R PIK3CA enzyme and < 1 µM in the experiment “cells”.
On to `NCc1cc(NC(=O)N2C[C@@](O)(C(F)F)c3cc(F)ccc32)c2c(c1)C(=O)N[C@@H]2c1cc(F)ccc1Cl` (single isomer, unassigned) [Compound I-2694], for which the results for the IC50 at H1047R PIK3CA enzyme and in the experiment “cells” were ≤ 0.1 µM and 1 to 5 µM, respectively.
Regarding `O=C1N[C@H](c2cc(F)ccc2Cl)c2c(NC(=O)N3C[C@@](O)(C(F)(F)F)c4cc(F)ccc43)ccnc21` (single isomer, unassigned) [Compound I-2698], the values for the half-inhibitory concentration (IC50) on H1047R PIK3CA enzyme and in the experiment “cells” were ≤ 0.1 µM and 1 to 5 µM, respectively.
